In patent US12421249B2, “Inhibitors of APOL1 and methods of using same” (Vertex Pharmaceuticals Incorporated, priority 2020, dated 2025):
pIC50: −log10 of the molar value.

Target: T1, APOL1 G1 (Homo sapiens, UniProt O14791, I384M/S342G)
T1 sequence (O14791 28-398 S342G/I384M): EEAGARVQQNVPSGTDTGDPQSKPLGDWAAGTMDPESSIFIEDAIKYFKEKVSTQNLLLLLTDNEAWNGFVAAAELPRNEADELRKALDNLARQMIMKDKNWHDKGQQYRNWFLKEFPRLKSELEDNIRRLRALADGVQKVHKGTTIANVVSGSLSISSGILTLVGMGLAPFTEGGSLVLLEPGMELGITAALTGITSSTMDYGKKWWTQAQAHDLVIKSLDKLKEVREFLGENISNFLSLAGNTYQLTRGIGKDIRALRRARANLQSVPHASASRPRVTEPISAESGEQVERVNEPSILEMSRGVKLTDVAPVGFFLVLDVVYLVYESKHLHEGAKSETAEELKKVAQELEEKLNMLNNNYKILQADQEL
Assay: MultiTox-Fluor Multiplex Cytotoxicity Assay in tet-inducible APOL1 G1 T-REx-HEK293 cells (clone G1 DC3.25)
Type: cell-based
Design: expressed in transfected cells; host or cells: T-REx HEK293, pAAVS1-Puro-APOL1 G1, clone G1 DC3.25
Conditions: Multi-Tox Assay; IP50 = IC50 for cell proliferation; APOL1 variant cell line not given
Method: The MultiTox-Fluor Multiplex Cytotoxicity Assay is a single-reagent-addition, homogeneous, fluorescence assay that measures the number of live and dead cells simultaneously in culture wells. The assay measures cell viability and cytotoxicity by detecting two distinct protease activities. The live-cell protease activity is restricted to intact viable cells and is measured using a fluorogenic, cell-permeant peptide glycyl-phenylalanylamino fluorocoumarin (GF-AFC) substrate. The substrate enters intact cells, where it is cleaved to generate a fluorescent signal proportional to the number of living cells. […] A second, cell-impermeant, fluorogenic peptide substrate (bis-AAF-R110 Substrate) is used to measure dead-cell protease that has been released from cells that have lost membrane integrity. A ratio of dead to live cells is used to normalize data.
Briefly, the tet-inducible transgenic APOL1 T-REx-HEK293 cell lines were incubated with 50 ng/mL tet to induce APOL1 in the presence of 3-(2-(4-fluorophenyl)-1H-indol-3-yl)-N-((3S,4R)-4-hydroxy-2-oxopyrrolidin-3-yl)propenamide at […], 0.0045, 0.0015, 0.0005 μM in duplicate for 24 hours in a humidified 37° C. incubator. The MultiTox reagent was added to each well and placed back in the incubator for an additional 30 minutes. The plate was read on the EnVision plate reader. A ratio of dead to live cells was used to normalize, and data was imported, analyzed and fit using Genedata Screener (Basel, Switzerland) software. Data was normalized using percent of control, no tet (100% viability), and 50 ng/mL tet treated (0% viability), and fit using Smart Fit. The reagents, methods, and complete protocol for the MultiTox assay are described below.
Human embryonic kidney (HEK293) cell lines containing a tet-inducible expression system (T-REx™; Invitrogen, Carlsbad, CA) and Adeno-associated virus site 1 pAAVS1-Puro-APOL1 G0 or pAAVS1-Puro-APOL1 G1 or pAAVS1-Puro-APOL1 G2 Clones G0 DC2.13, G1 DC3.25, and G2 DC4.44 were grown in a T-225 flask at ˜90% confluency in cell growth media (DMEM, 10% Tet-free FBS, 2 mM L-glutamine, 100 Units/mL penicillin-streptomycin, 5 μg/mL blasticidin S HCl, 1 μg/mL puromycin dihydrochloride). Cells were washed with DPBS and then trypsinized to dissociate from the flask. Media was used to quench the trypsin, cells were then pelleted at 200 g and resuspended in fresh cell assay media (DMEM, 2% Tet-free FBS, 2 mM L-glutamine, 100 Units/mL penicillin-streptomycin). Cells were counted and diluted to 1.17×10^6 cells/mL. 20 μL of cells (23,400/well) were dispensed to every well of a 384-well Poly-D-Lysine coated plate using the Multidrop dispenser. The plates were then incubated at room temperature for one hour.
Tetracycline is needed to induce APOL1 expression. 1 mg/mL tet stock in water was diluted to 250 ng/mL (5×) in cell assay media. 60 μL of cell assay media (no tet control) was dispensed in columns 1 and 24, and 60 μL of 5× tet was dispensed in 384-PP-round bottom plate in columns 2 to 23 with the Multidrop dispenser.
Assay ready plates from the Global Compound Archive were ordered using template 384_APOL1Cell_DR10n2_50 μM_v3. Compounds were dispensed at 200 nL in DMSO. The final top concentration was 10 μM with a 10 point 3-fold dilution in duplicate in the MultiTox assay.
20 μL were transferred from the 5× tet plate to the ARP and mixed, then 5 μL of 5× tet and the compounds were transferred to the cell plate and mixed using the Bravo. The cell plate was placed in the humidified 37° C. 5% CO2 incubator for 24 hours.
The MultiTox-Fluor Multiplex Cytotoxicity Assay was performed in accordance with the manufacturer's protocol. After cells were incubated with tet and compound for 24 hours, 25 μL of 1× MultiTox reagent was added to each well using the Multidrop dispenser; the plates were placed on a plate shaker (600 rpm) for 2 minutes, then centrifuged briefly and placed back in the 37° C. incubator for 30 minutes. […]

Compound: Cn1cc(C2CC3(CC(C(F)F)N2)OCCc2cc(C(F)(F)F)sc23)nn1 (centres unmarked) [Compound 389, 2′-(difluoromethyl)-6′-(1-methyltriazol-4-yl)-2-(trifluoromethyl)spiro[4,5-dihydrothieno[2,3-c]pyran-7,4′-piperidine]]
- pIC50: 6.30 to 7.30

Compound: C[C@H]1C[C@@]2(C[C@@H](c3cn(C)nn3)N1)OC[C@@H](O)c1sc(C(F)(F)F)cc12 [Compound 390, (2′S,4S,6′S, 7R)-2′-methyl-6′-(1-methyltriazol-4-yl)-2-(trifluoromethyl)spiro[6,7-dihydrothieno[3,2-c]pyran-4,4′-piperidine]-7-ol]
- pIC50: > 7.30
